The values that follow come from paper PMC6155239, “Targeting PFKFB3 radiosensitizes cancer cells and suppresses homologous recombination” (Nature Communications, 2018).

Each structure is given as a SMILES string. “Also recorded” adds a separate entry of the source.

The test system of assay [1] is U2OS DR-GFP cells. Put plainly: DR-GFP (HR) assay. It is filed as cell-based. Here is the method: 5 × 10^4 U2OS (DR-GFP) cells were seeded into 12-well plates, 24 h later cells were treated with the indicated siRNAs or inhibitors and, 24 h later, transfected with 150 ng of an I-SceI vector using JetPEI or JetPRIME (Polyplus transfections). The next day, the medium was changed; 24 h after this, cells were harvested by trypsinization and washed with PBS, and the GFP signal was measured by flow cytometry on a FACS Navios (as described above). The frequency of repair in cells treated with inhibitors or transfected with the various siRNAs was calculated relative to cells treated with DMSO or transfected with control siRNA.

In assay [2] the target is PFKFB3 (Homo sapiens, UniProt Q16875). The assay can be described thus: ADP-Glo kinase activity assay, PFKFB3. It counts as biochemical. The settings on record: in vitro enzymatic assay. Here is the method:
The kinase activity of the bi-functional enzyme was quantified based on the production of ADP and F-2,6-P2 from ATP by ADP-GloTM Kinase Assay (Promega). The assay was performed in two steps; first, after the kinase reaction, an equal volume of ADP-GloTM Reagent was added to terminate the kinase reaction and deplete the remaining ATP. Second, the Kinase Detection Reagent was added to simultaneously convert ADP to ATP and allow the newly synthesized ATP to be measured using a luciferase/luciferin reaction. The light generated was measured using a luminescence counter (1450 MicroBeta TriLux). The assay was performed in white 384-well plates (OptiPlate, 6007299, PerkinElmer) by consecutive additions of a test compound solution (0.1 µL, serial diluted in DMSO from compound DMSO stock solution and dispensed by acoustic dispensing from UV-star 384-well plate 7360153, VWR), enzyme solution (5 µL) and substrate (fructose-6-phosphate (F6P) and adenosine-5′-triphosphate (ATP)) containing solution (5 µL). […] Four reference dose–response curves, one of them being the QC compound, were included and serial diluted as the test compounds. The final concentrations of all reagents per well were 50 mM Tris–HCl at pH 8.0, 10 mM MgCl2, 5 mM NaPi at pH 8.0, 81.48 nM PFKFB3 or 145 nM PFKFB4, 8 µM ATP, 100 µM F6P (acid treated and then neutralized to remove any contaminating F-2,6-P2[34]), 0.005% Tween-20 and 1 mM dithiothreitol. Enzyme, compounds, and controls were pre-incubated at room temperature for 15 min before the addition of substrate solution. The enzymatic reaction was allowed to proceed for 20 min and the reaction was terminated by the addition of ADP-GloTM Reagent (10 µL) to all wells followed by 40 min incubation at room temperature. […] The inhibitory potency or IC50 values of test compounds on the kinase activity of the enzymes were calculated using a four-parameter model (model 205) in XLfit (IDBS ActivityBase XE Runner).

In assay [3] the test system is U2OS cells. Put plainly: IR-induced RAD51 / RPA32 foci, confocal. It counts as cell-based. The settings on record: in combination with IR. Here is the method:
(§1) Cells were grown on sterilized coverslips and fixed with 4% paraformaldehyde (PFA) (Santa Cruz) and 2% sucrose (Sigma Aldrich) for 15 min at room temperature. They were then permeabilized with 0.2% NP-40 (Thermo Scientific) for 10 min at room temperature followed by 30 min of blocking in blocking buffer (2 or 3% BSA, 5% glycerol, 0.1% Tween 20 (Sigma Aldrich)). Coverslips were subsequently incubated for 1, 2, or 24 h in primary antibody and 40 min in secondary antibody diluted in blocking buffer, DNA was stained with DAPI for 10 min. The coverslips were mounted with Prolonged Gold mounting medium (Invitrogen). Images were acquired with a Zeiss LSM 780 microscope using a 40× or 63× oil immersion lens and processed in ImageJ and CellProfiler.
To visualize PFKFB3, RPA32, RAD51, BRCA1, 53BP1, and RRM2 IRIF, the cells were first washed with PBS and then incubated for 5 min at room temperature with cytoskeleton (CSK) buffer containing 10 mM PIPES pH 7.0 (Sigma Aldrich), 100 mM NaCl (EMD Millipore), 300 mM sucrose (Sigma Aldrich), 3 mM MgCl2 (Sigma Aldrich), and 0.7% Triton X-100 (Sigma Aldrich). After these treatments, the cells were washed once again with PBS and then fixed in 4% PFA with 2% sucrose.

Assay [4] deals with U2OS cells. The assay can be described thus: Cell cycle analysis (propidium iodide, flow cytometry). It counts as cell-based. The settings on record: 24 h post-IR. Here is the method: For cell cycle analysis, cells were treated or transfected with siRNA as described and harvested at the indicated time points with trypsin. For studies using IR, cells were exposed to IR with 2 Gy, and harvested at the indicated time points with trypsin. The cells were washed in PBS and fixed with 70% ethanol in PBS at 4 °C for 1 h and then stored at −20 °C until staining. Ethanol was removed by centrifugation and cells were then washed in PBS before staining DNA with propidium iodide (PI) solution containing 40 μg/mL PI, 100 μg/mL RNase A, and 0.1% Triton X-100 (Sigma Aldrich). Cells were analyzed by flow cytometry on a FACS Navios (Beckman Coulter) using Kaluza software.
(In general: A flow cytometer gives signals particle by particle.)

Assay [5] relates to U2OS cells. The assay can be described thus: IR-induced Mre11 / Nbs1 foci formation. It is filed as cell-based. The note with it: treatment prior to IR (6 Gy, 2 h recovery). Here is the method:
as §1

Assay [6] deals with U2OS cells. Put plainly: IR-induced nuclear recruitment of PFKFB3. It is filed as cell-based. The settings on record: 2 h prior to IR. The procedure: as §1

PFKFB3, sequence (Q16875 whole entry): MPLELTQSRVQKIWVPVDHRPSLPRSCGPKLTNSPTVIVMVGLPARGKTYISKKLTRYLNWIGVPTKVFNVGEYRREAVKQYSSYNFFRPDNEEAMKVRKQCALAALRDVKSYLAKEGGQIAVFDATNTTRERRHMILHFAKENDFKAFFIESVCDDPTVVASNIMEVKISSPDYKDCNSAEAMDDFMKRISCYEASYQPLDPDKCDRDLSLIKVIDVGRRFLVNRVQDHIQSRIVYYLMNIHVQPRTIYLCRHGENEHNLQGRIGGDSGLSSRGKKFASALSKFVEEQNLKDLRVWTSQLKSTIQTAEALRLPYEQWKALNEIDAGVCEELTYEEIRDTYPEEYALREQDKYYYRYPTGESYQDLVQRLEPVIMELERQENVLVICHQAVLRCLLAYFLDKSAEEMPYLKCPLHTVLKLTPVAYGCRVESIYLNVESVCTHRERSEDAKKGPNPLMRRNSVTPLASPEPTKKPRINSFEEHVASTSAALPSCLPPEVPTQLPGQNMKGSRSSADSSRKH

As to `O=C(C=Cc1cccnc1)c1ccncc1` [3-PO, 3-(3-pyridinyl)-1-(4-pyridinyl)-2-propen-1-one, reference compound], the “effect on HR activity (in words)” value in assay [1] is recorded as “did not decrease HR activity; also recorded: without affecting HR activity”. In addition, in assay [2], the “inhibition of recombinant PFKFB3 kinase activity (in words)” value is reported as “could not achieve an IC50 value”. In addition, in assay [3], the “IR-induced recruitment of RPA32 and RAD51 into repair foci (in words)” value was “unaffected”. Moreover, in assay [4], the “accumulation of cells in G2/M phase upon IR (in words)” value was “not seen”.

Consider `N=C1NC(=O)/C(=C/c2ccc(O)cc2)S1` [Mirin, reference compound], for which the “IR-induced Mre11 or Nbs1 foci formation (in words)” value in assay [5] was “completely blocked”. For the same compound, in assay [6], the “IR-induced recruitment of PFKFB3 (in words)” value is “blocked”.
